In patent US20180243298A1, “TRPV3 MODULATORS” (AbbVie Inc., priority 2015, published 2018):

Target: T1, human TRPV3 (Homo sapiens, UniProt Q8NET8)
T1 construct: expressed in transfected cells; host or cells: HEK293
T1 sequence (Q8NET8 1-790): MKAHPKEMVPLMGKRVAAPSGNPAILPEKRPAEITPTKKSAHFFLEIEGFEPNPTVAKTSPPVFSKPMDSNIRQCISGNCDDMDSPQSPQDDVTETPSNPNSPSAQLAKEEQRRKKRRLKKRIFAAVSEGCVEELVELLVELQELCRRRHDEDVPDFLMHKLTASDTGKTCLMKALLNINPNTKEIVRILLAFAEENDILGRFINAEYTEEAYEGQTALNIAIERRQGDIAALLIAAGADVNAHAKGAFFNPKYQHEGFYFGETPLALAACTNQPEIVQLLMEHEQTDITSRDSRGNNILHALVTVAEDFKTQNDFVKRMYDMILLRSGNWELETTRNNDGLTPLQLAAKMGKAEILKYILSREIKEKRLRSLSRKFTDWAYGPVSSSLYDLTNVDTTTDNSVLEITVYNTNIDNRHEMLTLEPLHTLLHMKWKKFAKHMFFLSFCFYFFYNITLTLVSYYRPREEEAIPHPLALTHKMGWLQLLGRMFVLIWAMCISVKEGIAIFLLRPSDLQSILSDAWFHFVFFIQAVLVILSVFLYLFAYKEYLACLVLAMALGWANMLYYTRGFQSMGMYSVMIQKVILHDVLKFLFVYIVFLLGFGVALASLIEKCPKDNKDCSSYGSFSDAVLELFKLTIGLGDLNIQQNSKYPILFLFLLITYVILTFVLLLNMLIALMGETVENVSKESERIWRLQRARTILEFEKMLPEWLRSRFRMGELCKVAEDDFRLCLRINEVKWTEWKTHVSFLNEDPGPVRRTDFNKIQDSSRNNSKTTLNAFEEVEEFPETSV
Assay: Calcium flux assay (FLIPR TETRA), recombinant HEK293 cells expressing TRPV3, 2-APB response
Type: cell-based
Conditions: 2-APB at its EC80
Summary of the method: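 HEK293 cells stably expressing human or mouse TRPV3, loaded with Calcium-4 dye for 90–120 min, read on FLIPR TETRA. Peak fluorescence rise over baseline expressed as percent of the maximal response to 2-APB at its EC80 without compound.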

Row | SMILES | IC50
1 | COc1ncnc(OC)c1C(=O)Nc1nc(C(F)(F)F)c(C(F)(F)F)s1 [Example 163, N-[4,5-bis(trifluoromethyl)-1,3-thiazol-2-yl]-4,6-dimethoxypyrimidine-5-carboxamide] | 50 to 100 nM
2 | CO/N=C(\C)c1sc(NC(=O)c2c(OC)ncnc2OC)nc1C(F)(F)F [Example 135, 4,6-dimethoxy-N-{5-[(1E)-N-methoxyethanimidoyl]-4-(trifluoromethyl)-1,3-thiazol-2-yl}pyrimidine-5-carboxamide] | < 50 nM
3 | COc1ncnc(OC)c1C(=O)Nc1nc(COc2ccccc2C)cs1 [Example 179, 4,6-dimethoxy-N-{4-[(2-methylphenoxy)methyl]-1,3-thiazol-2-yl}pyrimidine-5-carboxamide] | 100 to 500 nM
4 | COc1ncnc(OC)c1C(=O)Nc1nc(C(F)(F)F)c(CCCO)s1 [Example 13, N-[5-(3-hydroxypropyl)-4-(trifluoromethyl)-1,3-thiazol-2-yl]-4,6-dimethoxypyrimidine-5-carboxamide] | > 1000 nM
5 | COc1ncnc(OC)c1C(=O)Nc1nc(C(F)(F)F)c(Sc2ccccc2)s1 [Example 115, 4,6-dimethoxy-N-[5-phenylsulfanyl-4-(trifluoromethyl)-1,3-thiazol-2-yl]pyrimidine-5-carboxamide] | 50 to 100 nM
6 | COc1ncnc(OC)c1C(=O)Nc1nc(C(F)(F)F)c(-c2cc3ncccc3o2)s1 [Example 187, N-[5-(furo[3,2-b]pyridin-2-yl)-4-(trifluoromethyl)-1,3-thiazol-2-yl]-4,6-dimethoxypyrimidine-5-carboxamide] | 100 to 500 nM
7 | COc1ncnc(OC)c1C(=O)Nc1nc(C(F)(F)F)c(-c2cnc(N3CCOCC3)nc2)s1 [Example 36, 4,6-dimethoxy-N-{5-[2-(morpholin-4-yl)pyrimidin-5-yl]-4-(trifluoromethyl)-1,3-thiazol-2-yl}pyrimidine-5-carboxamide] | 50 to 100 nM
8 | COc1ncnc(OC)c1C(=O)Nc1nc(C(F)(F)F)c(-c2cn(C)nc2C)s1 [Example 67, N-[5-(1,3-dimethyl-1H-pyrazol-4-yl)-4-(trifluoromethyl)-1,3-thiazol-2-yl]-4,6-dimethoxypyrimidine-5-carboxamide] | 50 to 100 nM
9 | COc1ncnc(OC)c1C(=O)Nc1nc(C(F)(F)F)c(CN2CCCC3(COC3)C2)s1 [Example 62, 4,6-dimethoxy-N-[5-(2-oxa-6-azaspiro[3.5]non-6-ylmethyl)-4-(trifluoromethyl)-1,3-thiazol-2-yl]pyrimidine-5-carboxamide] | 50 to 100 nM
10 | COc1ncnc(OC)c1C(=O)Nc1nc(C(F)(F)F)c(-c2ccnc3ccccc23)s1 [Example 167, 4,6-dimethoxy-N-[5-(quinolin-4-yl)-4-(trifluoromethyl)-1,3-thiazol-2-yl]pyrimidine-5-carboxamide] | < 50 nM
11 | COc1ncnc(OC)c1C(=O)Nc1nc(-c2ccc(C(F)(F)F)cn2)c([S+](C)[O-])s1 (stereo not drawn) [Example 113, 4,6-dimethoxy-N-[5-methylsulfinyl-4-[5-(trifluoromethyl)-2-pyridyl]-1,3-thiazol-2-yl]pyrimidine-5-carboxamide] | 500 to 1000 nM
12 | CCn1cc(-c2sc(NC(=O)c3c(OC)ncnc3OC)nc2C(F)(F)F)cn1 [Example 177, N-[5-(1-ethyl-1H-pyrazol-4-yl)-4-(trifluoromethyl)-1,3-thiazol-2-yl]-4,6-dimethoxypyrimidine-5-carboxamide] | 100 to 500 nM
13 | COc1ncnc(OC)c1C(=O)Nc1nc(C(F)(F)F)c(C2OCCO2)s1 [Example 138, N-[5-(1,3-dioxolan-2-yl)-4-(trifluoromethyl)-1,3-thiazol-2-yl]-4,6-dimethoxypyrimidine-5-carboxamide] | 100 to 500 nM
14 | COc1ncnc(OC)c1C(=O)Nc1nc(C(F)(F)F)cs1 [Example 3, 4,6-dimethoxy-N-[4-(trifluoromethyl)-1,3-thiazol-2-yl]pyrimidine-5-carboxamide] | 100 to 500 nM
15 | COc1ncnc(OC)c1C(=O)Nc1nc(CCc2ccc(F)cc2)cs1 [Example 107, N-{4-[2-(4-fluorophenyl)ethyl]-1,3-thiazol-2-yl}-4,6-dimethoxypyrimidine-5-carboxamide] | 500 to 1000 nM
16 | COc1ncnc(OC)c1C(=O)Nc1nc(C(F)(F)F)c(C(C)(O)c2ccccc2)s1 (stereo not drawn) [Example 122, N-[5-(1-hydroxy-1-phenylethyl)-4-(trifluoromethyl)-1,3-thiazol-2-yl]-4,6-dimethoxypyrimidine-5-carboxamide] | < 50 nM
17 | COc1ncnc(OC)c1C(=O)Nc1nc(C(F)(F)F)c(C2(O)CCC2)s1 [Example 119, N-[5-(1-hydroxycyclobutyl)-4-(trifluoromethyl)-1,3-thiazol-2-yl]-4,6-dimethoxypyrimidine-5-carboxamide] | > 1000 nM
18 | COc1ncnc(OC)c1C(=O)Nc1nc(C(F)(F)F)c(-c2cccc(C3(C#N)COC3)n2)s1 [Example 154, N-{5-[6-(3-cyanooxetan-3-yl)pyridin-2-yl]-4-(trifluoromethyl)-1,3-thiazol-2-yl}-4,6-dimethoxypyrimidine-5-carboxamide] | 50 to 100 nM
19 | CCOC(=O)c1sc(NC(=O)c2c(OC)ncnc2OC)nc1C(F)(F)F [Example 21, ethyl 2-{[(4,6-dimethoxypyrimidin-5-yl)carbonyl]amino}-4-(trifluoromethyl)-1,3-thiazole-5-carboxylate] | < 50 nM
20 | CCOC(=O)c1sc(NC(=O)c2c(OC)ncnc2OC)nc1C(C)(C)C [Example 193, ethyl 4-tert-butyl-2-{[(4,6-dimethoxypyrimidin-5-yl)carbonyl]amino}-1,3-thiazole-5-carboxylate] | < 50 nM
21 | CCc1sc(NC(=O)c2c(OC)ncnc2OC)nc1-c1ccccc1 [Example 26, N-(5-ethyl-4-phenyl-1,3-thiazol-2-yl)-4,6-dimethoxypyrimidine-5-carboxamide] | 50 to 100 nM
22 | COc1ncnc(OC)c1C(=O)Nc1nc(-c2ccc(C(F)(F)F)cn2)c(C)s1 [Example 95, 4,6-dimethoxy-N-{5-methyl-4-[5-(trifluoromethyl)pyridin-2-yl]-1,3-thiazol-2-yl}pyrimidine-5-carboxamide] | < 50 nM
23 | COc1ncnc(OC)c1C(=O)Nc1nc(C(F)(F)F)c(C2CCCOC2)s1 (stereo not drawn) [Example 148, 4,6-dimethoxy-N-[5-(tetrahydro-2H-pyran-3-yl)-4-(trifluoromethyl)-1,3-thiazol-2-yl]pyrimidine-5-carboxamide] | 50 to 100 nM
24 | COc1cc(F)ccc1-c1csc(NC(=O)c2c(OC)ncnc2OC)n1 [Example 108, N-[4-(4-fluoro-2-methoxyphenyl)-1,3-thiazol-2-yl]-4,6-dimethoxypyrimidine-5-carboxamide] | 100 to 500 nM
